Structures are written as SMILES.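 All cell lines were grown in 96-well plates and treated with compound for 48 hours. GI50: concentration for 50% inhibition of growth. The concentration for full growth arrest is given as TGI.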 Some results are limits rather than exact numbers.

Here are results for ten compounds from PubChem BioAssay (NCI).

Among the test systems are 786-0 renal; CAKI-1 renal; HCT-116 colon; K-562 leukemia; NCI-H460 lung; NCI-H522 lung; OVCAR-4 ovarian; SK-MEL-28 melanoma; SNB-19 CNS; UACC-62 melanoma.
Holding throughout (experiment): NCI-60 cell line screen, 48 h

On to `BrCc1ccc(CBr)cc1`, for which the GI50 was 2590 nM in the assay with 786-0 renal; 1990 nM in the assay on CAKI-1 renal; 5400 nM in the assay on HCT-116 colon; 7100 nM in the assay on K-562 leukemia; 4840 nM with NCI-H460 lung; 18200 nM in the assay on NCI-H522 lung. In addition, the GI50 is 8960 nM in the assay with OVCAR-4 ovarian, 8290 nM in the assay with SK-MEL-28 melanoma, 528 nM with SNB-19 CNS and 5130 nM in the assay on UACC-62 melanoma. For the same compound, the TGI with 786-0 renal is 8.63 µM; in the assay with CAKI-1 renal, 6.92 µM; in the assay on K-562 leukemia, more than 20.6 µM; in the assay with NCI-H460 lung it was 17.4 µM; in the assay with NCI-H522 lung, 52.2 µM; with OVCAR-4 ovarian, 22.4 µM. The TGI was found to be 23.3 µM in the assay with SK-MEL-28 melanoma, 25.8 µM in the assay on SNB-19 CNS and 22.3 µM in the assay with UACC-62 melanoma.
With `Cc1ccc(S(=O)OC2C3CC4CC(C3)CC2C4)cc1` (stereo not drawn), the TGI in the assay on 786-0 renal, in the assay with CAKI-1 renal, in the assay on HCT-116 colon, in the assay with K-562 leukemia, with NCI-H460 lung and with NCI-H522 lung was more than 100 µM in each case. Besides, the TGI with OVCAR-4 ovarian, in the assay on SK-MEL-28 melanoma, in the assay on SNB-19 CNS and in the assay on UACC-62 melanoma was more than 100 µM throughout.
On to `Cc1ccc(C2=Nc3ccccc3SC(c3cccc([N+](=O)[O-])c3)C2)cc1` (stereo not drawn), for which the TGI with 786-0 renal is 27 µM; in the assay with CAKI-1 renal, more than 100 µM; in the assay on HCT-116 colon, 20.8 µM; in the assay on K-562 leukemia it was 23.8 µM; in the assay with NCI-H460 lung, more than 100 µM; with NCI-H522 lung it was 64.6 µM. Further, the TGI with OVCAR-4 ovarian, in the assay on SK-MEL-28 melanoma, in the assay on SNB-19 CNS and with UACC-62 melanoma was more than 100 µM each time.
Turning to `CC(C)(C)c1ccc(C(=O)Nc2sc3c(c2C(N)=O)CCC(=O)C3)cc1`, the GI50 is 1860 nM with 786-0 renal; 348 nM in the assay on CAKI-1 renal; 287 nM with HCT-116 colon; 127 nM in the assay on K-562 leukemia; 586 nM in the assay on NCI-H460 lung; 318 nM with NCI-H522 lung. Further, the GI50 in the assay with OVCAR-4 ovarian is 354 nM; in the assay with SK-MEL-28 melanoma it was 1130 nM; in the assay with SNB-19 CNS, 457 nM; with UACC-62 melanoma, 498 nM. For the same compound, the TGI in the assay with 786-0 renal was 5.07 µM; with CAKI-1 renal it was 1.38 µM; with HCT-116 colon, 1.29 µM; in the assay on NCI-H460 lung it was 1.94 µM; in the assay on NCI-H522 lung, 1.91 µM; in the assay with OVCAR-4 ovarian it was 1.27 µM. Moreover, the TGI in the assay with SK-MEL-28 melanoma came out at 2.77 µM; with SNB-19 CNS it was 1.94 µM; in the assay on UACC-62 melanoma, 2.01 µM.
Turning to `O=P1(Oc2ccccc2)C(c2ccccc2)C(c2ccccc2)=NN1c1ccccc1` (stereo not drawn), the TGI was more than 100 µM in the assay with 786-0 renal; 65 µM in the assay with CAKI-1 renal; 31.3 µM in the assay with HCT-116 colon; 66 µM in the assay on K-562 leukemia; 60.9 µM with NCI-H460 lung; 36.4 µM in the assay with NCI-H522 lung. In addition, the TGI in the assay on OVCAR-4 ovarian was 86.3 µM; in the assay on SK-MEL-28 melanoma it was 64.2 µM; in the assay with SNB-19 CNS, more than 100 µM; in the assay with UACC-62 melanoma it was 35.3 µM.
Turning to `COc1ccc(C2[C@@H](Cl)C(=O)N2c2cc(OC)c(OC)c(OC)c2)cc1Cl` (stereo partly drawn), the GI50 is 38.9 nM in the assay with 786-0 renal; 146 nM in the assay on CAKI-1 renal; 72.1 nM in the assay on HCT-116 colon; 41 nM with K-562 leukemia; 317 nM in the assay on NCI-H460 lung; 35.3 nM in the assay on NCI-H522 lung. Further, the GI50 in the assay with OVCAR-4 ovarian is 837 nM; in the assay with SK-MEL-28 melanoma, 654 nM; in the assay with SNB-19 CNS it was 293 nM; in the assay on UACC-62 melanoma, 46.3 nM. The TGI in the assay on 786-0 renal was 10.1 µM; in the assay with CAKI-1 renal it was more than 100 µM; with HCT-116 colon, 15.2 µM; in the assay with K-562 leukemia, more than 100 µM; in the assay on NCI-H460 lung, 6.95 µM; in the assay on NCI-H522 lung, 0.296 µM. Besides, the TGI with OVCAR-4 ovarian is more than 100 µM; in the assay on SK-MEL-28 melanoma, 87.3 µM; in the assay on SNB-19 CNS, more than 100 µM; with UACC-62 melanoma it was 29 µM.
As for `O=C(O)/C(Cl)=C(\Cl)C(=O)Nc1ccc(Cl)c(Cl)c1Cl`, the TGI is 32.1 µM in the assay with 786-0 renal; 32 µM in the assay with CAKI-1 renal; 28.1 µM in the assay on HCT-116 colon; 83.1 µM with K-562 leukemia; 45.9 µM with NCI-H460 lung; 23.7 µM in the assay on NCI-H522 lung. Further, the TGI was 33.6 µM in the assay on OVCAR-4 ovarian, 42.7 µM with SK-MEL-28 melanoma, 30.2 µM in the assay with SNB-19 CNS and 26.1 µM in the assay with UACC-62 melanoma.
On to `COc1ccc(C(=O)N2c3ccccc3Sc3ccccc32)c(OC)c1`, for which the GI50 is 480 nM in the assay on 786-0 renal; 573 nM in the assay on CAKI-1 renal; 452 nM with HCT-116 colon; 381 nM with K-562 leukemia; 406 nM in the assay with NCI-H460 lung; 343 nM in the assay with NCI-H522 lung. The GI50 with OVCAR-4 ovarian was 3170 nM; in the assay with SK-MEL-28 melanoma it was 942 nM; in the assay with SNB-19 CNS it was 551 nM; in the assay on UACC-62 melanoma, 321 nM. The TGI with 786-0 renal, with CAKI-1 renal, in the assay on HCT-116 colon, in the assay on K-562 leukemia, with NCI-H460 lung and in the assay with NCI-H522 lung was more than 100 µM each time. For the same compound, the TGI with OVCAR-4 ovarian, with SK-MEL-28 melanoma, in the assay on SNB-19 CNS and in the assay on UACC-62 melanoma was more than 100 µM throughout.
In the case of `Cc1ccc(NC(=O)c2ccccc2C(=O)O)cc1C`, the TGI in the assay on 786-0 renal, in the assay on CAKI-1 renal, in the assay with HCT-116 colon, in the assay with K-562 leukemia, with NCI-H460 lung and with NCI-H522 lung was more than 100 µM throughout. For the same compound, the TGI in the assay with OVCAR-4 ovarian, with SK-MEL-28 melanoma, with SNB-19 CNS and with UACC-62 melanoma was more than 100 µM each time.
Take `CN(C)c1ccc(/C=C2\C=Cc3ccccc32)cc1`: the TGI in the assay on 786-0 renal was more than 100 µM; with CAKI-1 renal, more than 100 µM; in the assay on HCT-116 colon, more than 100 µM; in the assay with K-562 leukemia, more than 100 µM; with NCI-H460 lung, more than 100 µM; with NCI-H522 lung, 52.3 µM. In addition, the TGI with OVCAR-4 ovarian, in the assay with SK-MEL-28 melanoma, with SNB-19 CNS and in the assay on UACC-62 melanoma was more than 100 µM throughout.
